From patent publication US9573972B2, “Nurotoxic sterol glycosides” (priority 2008, dated 2017) come the findings set out here.

Each structure is given as a SMILES string.

The test system of the data set is lumbar spinal cord α- and γ-motor neurons. Put plainly: Motor neuron counts (cresyl violet, Nissl), lumbar spinal cord. In kind it is in vivo, mouse. As for the experimental part:
Mice were sacrificed for histological analysis at 35 weeks (35.9-48.6 g) and 52 weeks (41.2-51.4 g) of age. Age-matched control mice from each time point were included for comparison. The mice were deeply anaesthetized in a chamber with 4% isoflurane and perfused intracardially with filtered PBS (pH 7.4) until the effluent was cleared of blood (2 minutes), followed by perfusion with cold (4° C.) 4% paraformaldehyde (PFA) in 0.1 M phosphate buffer (pH 7.4) for 5 minutes (30 mL). The PBS and the PFA were delivered through separate sterile platinum-cured silicon tubing (Cole-Parmer Canada Inc., Montreal, Canada) and peristaltic pumps (MasterFlex peristaltic pump, Cole-Parmer Canada Inc., Montreal, Canada). The brains and spinal cords were dissected out and fixed overnight at 4° C. and equilibrated in increasing concentrations of sucrose in phosphate-buffered saline, pH 7.4 (10, 20, and 25%) over a 3-day period. Complete equilibration of the tissues was taken as the moment the tissues sank to the bottom of the scintillation tubes filled with 25% sucrose. After equilibration, the spinal cord and brain specimens were set in molds (Tissue-tek Cryomold, Sakura Finetek, USA, Torrance, Calif.) with an optimum cutting temperature (OCT) gel-sucrose mixture frozen by immersion in an isopentane (BDH Laboratory Supplies, UK) bath on dry ice and stored at −80° C. until processing.
Cryosectioning of tissue: Frozen, coronal sections (spinal cord: 20 μm, brain: 30 μm) were cut with a Hacker-Bright cryostat (Hacker Instruments and Industries Inc., Winnsboro, S.C.) and mounted on charged glass slides (Superfrost Plus; Fisher Scientific, Pittsburgh, Pa.) so that adjacent CNS sections on each slide represented regions 100 μm and 150 μm apart for spinal cord and brain, respectively (Tabata et al., 2008). The slides were stored at −80° C. until histological processing. To ensure CNS sections were matched between animals, anatomical landmarks were verified using a mouse brain atlas (Paxinos and Franklin, The mouse brain in stereotaxic coordinates: Second Edition, K.B.J., Academic Press, New York, 2001).
Histology and quantification of motor neurons: Spinal cord and brain sections from each animal were stained for Nissl body substance. At room temperature (RT), sections were rinsed in a graded ethanol series (95%:15 min; 70%:1 min; 50%:1 min) to rehydrate and remove lipids and fixation chemicals from the tissue. The tissue were then rinsed for 2 min in two exchanges of distilled water, stained with twice-filtered cresyl violet stain (1.25 g cresyl violet acetate, 0.75 mL glacial acetic acid to 250 mL distilled water), rinsed in distilled water (1 minute), and then dehydrated (50% ethanol: 1 minute; 1% glacial acetic acid-70% ethanol: 2 minutes; 95% ethanol: 2 minutes; 95% ethanol: 3 dips; 100% ethanol: 1 minute) and cleared in xylene. The slides were then cover-slipped in Entellen mountant (Merck, Darmstadt, Germany). The tissue mounted slides were selected with a randomized start and sampled starting from the lumbar 2 region to the 6th. […] The boundaries for the ventral horn was determined by the margins of the gray matter for the lateral, medial and ventral boundaries as well as with the aid of an artificial line drawn laterally through the central canal. Both the left and right ventral horns from 12 sections from each animal were counted. Alpha-motor neurons and γ-motor neurons with and without apoptotic structural changes were counted using strict morphological and size criteria. Non-apoptotic α-neurons were considered as the following: Large, multipolar cells with a round, pale nucleus; visible nucleolus; globular Nissl body staining of the cytoplasm; and a diameter of 30-45 μm. In doing so, astrocytes, oligodendrocytes and microglia were excluded from the “α-motor neuron” counts (Martin, L. J. (1999) J Neuropathol Exp Neurol. 58, 459-71; Sepkuty, J. P., et al. (2002) J Neurosci. 22, 6372-9; Tabata et al., 2008). […]

[1] abbreviates: SG-fed vs control, Time-point 1 (35 wk).
The mark [2] stands for this setting: SG-fed vs control, Time-point 2 (52 wk).
Setting [3] is: SG-group over time (35 to 52 wk).

For `CC[C@H](/C=C/[C@@H](C)[C@H]1CC[C@H]2[C@@H]3CC=C4C[C@@H](O[C@@H]5O[C@H](CO)[C@@H](O)[C@H](O)[C@H]5O)CC[C@]4(C)[C@H]3CC[C@]12C)C(C)C` [SG, Stigmasterol β-D-Glucopyranoside], under setting [1], the “Chromatolytic α-MN” value is on record as “Chromatolytic α-MN (ns)”, the “Healthy α-MN per lumbar cord section” value is on record as “Healthy α-MN (ns)”, the “Pyknotic α-MN” value is “Pyknotic α-MN (ns)” and the “Total γ-MN” value is recorded as “Total γ-MN (ns)”. Besides, under setting [2], the “Chromatolytic α-MN” value was “Chromatolytic α-MN (ns)”, the “Pyknotic α-MN” value is on record as “Pyknotic α-MN (ns)” and the “Total γ-MN” value was “Total γ-MN (ns)”. Under setting [3], the “Chromatolytic α-MN over time” value is given as “(control group & SG-group independently over time) (ns)”; the “Pyknotic α-MN over time” value is “(control group and SG-group independently over time) (ns)”; the “Total γ-MN over time” value is “(control group and SG-group independently over time) (ns)”.
